From patent US20150105252A1, “SUBSTITUTED PYRAZOLES AS HERBICIDES” (E I DU PONT DE NEMOURS AND COMPANY, priority 2013, published 2015)

How the values were obtained:
wheat = assay: Test A preemergence; assay type: in vivo, Triticum aestivum; conditions: preemergence
Outline: (§1)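 Visual injury rating, 0–100 (0 no effect, 100 complete control), vs untreated controls ~10 days after treatment in greenhouse. Pre: directed soil spray on seeded loam/sand. Post: 2–10 cm plants, 1–2 leaf stage. Formulation: non-phytotoxic solvent mix + surfactant.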

corn = assay: Test A preemergence; assay type: in vivo, Zea mays
Outline: as §1

barnyardgrass = assay: Test A postemergence; assay type: in vivo, Echinochloa crus-galli
Outline: as §1

foxtail, giant = assay: Test A postemergence; assay type: in vivo, Setaria faberii
Outline: as §1

morningglory [1] = assay: Test A postemergence; assay type: in vivo, Ipomoea spp.
Outline: as §1

pigweed [2] = assay: Test A postemergence; assay type: in vivo, Amaranthus retroflexus
Outline: as §1

sedge, umbrella = assay: Test B flood; assay type: in vivo, Cyperus difformis; conditions: 250 g ai/ha, visual rating on 0 to 100 scale (0 no effect, 100 complete control), 13 to 15 days
Outline: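 Greenhouse assay lasting 13 to 15 days. Treatment was into water flooding pots 3 cm deep, at the 2-leaf stage, with that level sustained afterwards. Scores compare treated with control plants visually, 100 denoting complete control and 0 no effect; a dash marks no test result.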

nutsedge, yellow = assay: Test C preemergence; assay type: in vivo, Cyperus esculentus; conditions: for Plant response rating (scale of 0 to 100), Nutsedge, Yellow: Preemergence, 250 g ai/ha; for Nutsedge, Yellow plant response rating / Plant response rating, Nutsedge, Yellow: preemergence; for Plant response rating, Nutsedge, Yellow: scale 0 to 100, 0 = no effect, 100 = complete control
Excerpt: (§2) Seeds of plant species selected from blackgrass (Alopecurus myosuroides), ryegrass, Italian (Italian ryegrass, Lolium multiflorum), wheat (winter wheat, Triticum aestivum), galium (catchweed bedstraw, Galium aparine), corn (Zea mays), crabgrass, large (large crabgrass, Digitaria sanguinalis), foxtail, giant (giant foxtail, Setaria faberii), johnsongrass (Sorghum halepense), lambsquarters (Chenopodium album), morningglory (Ipomoea coccinea), nutsedge, yellow (yellow nutsedge, Cyperus esculentus), pigweed (redroot pigweed, Amaranthus retroflexus), ragweed (common ragweed, Ambrosia elation), soybean (Glycine max), barnyardgrass (Echinochloa crus-galli), oilseed rape (Brassica napus), waterhemp (common waterhemp, Amaranthus rudis), oat, wild (wild oat, Avena fatua), kochia (Kochia scoparia), Surinam grass (Brachiaria decumbens), foxtail, green (green foxtail, Setaria viridis), goosegrass (Eleusine indica), bromegrass, downy (downy bromegrass, Bromus tectorum), nightshade (eastern black nightshade, Solanum ptycanthum), cocklebur (common cocklebur, Xanthium strumarium), cupgrass, woolly (woolly cupgrass, Eriochloa villosa), bermudagrass (Cynodon dactylon), sunflower, (common oilseed sunflower, Helianthus annuus), Russian thistle (Salsola kali), and velvetleaf (Abutilon theophrasti) were planted into a blend of loam soil and sand and treated preemergence with test chemicals formulated in a non-phytotoxic solvent mixture which included a surfactant.
(§3) At the same time, plants selected from these crop and weed species and also chickweed (common chickweed, Stellaria media), canarygrass (littleseed canarygrass, Phalaris minor), and deadnettle (henbit deadnettle, Lamium amplexicaule), were planted in pots containing Redi-Earth® planting medium (Scotts Company, 14111 Scottslawn Road, Marysville, Ohio 43041) comprising spaghnum peat moss, vermiculite, wetting agent and starter nutrients and treated with postemergence applications of test chemicals formulated in the same manner. Plants ranged in height from 2 to 18 cm (1- to 4-leaf stage) for postemergence treatments. Treated plants and controls were maintained in a greenhouse for 13 to 15 days, after which time all species were compared to controls and visually evaluated. Plant response ratings, summarized in Table C, are based on a scale of 0 to 100 where 0 is no effect and 100 is complete control. A dash (-) response means no test result.

pigweed [3] = assay: Test C preemergence; assay type: in vivo, Amaranthus retroflexus; conditions: for Plant response rating (scale of 0 to 100), Pigweed: Preemergence, 250 g ai/ha; for Pigweed plant response rating / Plant response rating, Pigweed: preemergence; for Plant response rating, Pigweed: scale 0 to 100, 0 = no effect, 100 = complete control
Excerpt: as §2, §3

soybean = assay: Test C preemergence; assay type: in vivo, Glycine max; conditions: for Plant response rating (scale of 0 to 100), Soybean: Preemergence, 250 g ai/ha; for Soybean plant response rating / Plant response rating, Soybean: preemergence; for Plant response rating, Soybean: scale 0 to 100, 0 = no effect, 100 = complete control
Excerpt: as §2, §3

velvetleaf = assay: Test C preemergence; assay type: in vivo, Abutilon theophrasti; conditions: for Plant response rating (scale of 0 to 100), Velvetleaf: Preemergence, 250 g ai/ha; for Velvetleaf plant response rating / Plant response rating, Velvetleaf: preemergence; for Plant response rating, Velvetleaf: scale 0 to 100, 0 = no effect, 100 = complete control
Excerpt: as §2, §3

blackgrass = assay: Test C preemergence; assay type: in vivo, Alopecurus myosuroides; conditions: for Plant response rating (scale of 0 to 100), Blackgrass: Preemergence, 250 g ai/ha; for Blackgrass plant response rating / Plant response rating, Blackgrass: preemergence; for Plant response rating, Blackgrass: scale 0 to 100, 0 = no effect, 100 = complete control
Excerpt: as §2, §3

morningglory [4] = assay: Test C preemergence; assay type: in vivo, Ipomoea coccinea; conditions: for Plant response rating (scale of 0 to 100), Morningglory: Preemergence, 250 g ai/ha; for Morningglory plant response rating / Plant response rating, Morningglory: preemergence; for Plant response rating, Morningglory: scale 0 to 100, 0 = no effect, 100 = complete control
Excerpt: as §2, §3

[5] = 125 g ai/ha, visual injury, 0 to 100 scale, approx. 10 days
[6] = 500 g ai/ha, visual injury after approx. 10 days, 0 to 100 scale (0 no effect, 100 complete control)
[7] = preemergence, 125 g ai/ha, visual injury, 0 to 100 scale, approx. 10 days
[8] = Postemergence, 125 g ai/ha, 0 to 100 scale, 0 no effect, 100 complete control
[9] = Postemergence, 500 g ai/ha, visual rating after approx. 10 days, 0 to 100 scale (0 no effect, 100 complete control)
[10] = postemergence, 125 g ai/ha, about 10 days, visual rating on 0 to 100 scale (0 no effect, 100 complete control)
[11] = 31 g ai/ha, visual rating, scale 0 to 100 (0 no effect, 100 complete control), 13 to 15 days
[12] = 125 g ai/ha, scale 0 to 100, 0 is no effect, 100 is complete control
[13] = preemergence, 500 g ai/ha, visual injury after approx. 10 days, 0 to 100 scale (0 no effect, 100 complete control)
[14] = Postemergence, 500 g ai/ha, 0 to 100 scale (0 no effect, 100 complete control)
[15] = 62 g ai/ha, scale 0 to 100 (0 no effect, 100 complete control), 13 to 15 days

Row | Compound | Wheat plant response rating (wheat; [5]) | Wheat plant response rating (wheat; [6]) | Corn plant response rating (corn; [7]) | Foxtail, Giant plant response rating (foxtail, giant; [10]) | Morningglory plant response rating (morningglory [1]; [10]) | Pigweed plant response rating (pigweed [2]; [10]) | Plant response rating, Sedge, Umbrella (sedge, umbrella) | Plant response rating (scale of 0 to 100), Nutsedge, Yellow (nutsedge, yellow) | Nutsedge, Yellow plant response rating (nutsedge, yellow; [11]) | Nutsedge, Yellow plant response rating (nutsedge, yellow; [12]) | Plant response rating (scale of 0 to 100), Pigweed (pigweed [3]) | Pigweed plant response rating (pigweed [3]; [11]) | Plant response rating (scale of 0 to 100), Soybean (soybean) | Soybean plant response rating (soybean; [11]) | Plant response rating (scale of 0 to 100), Velvetleaf (velvetleaf) | Velvetleaf plant response rating (velvetleaf; [11]) | Barnyardgrass plant response rating (barnyardgrass; [10]) | Barnyardgrass plant response rating (barnyardgrass; [14]) | Foxtail, Giant plant response rating (foxtail, giant; [14]) | Pigweed plant response rating (pigweed [2]; [14]) | further results
1 | CCc1cc(C(=O)NCC(F)(F)F)nn1Cc1ccnc(C(F)(F)F)c1 [Compound 78, 5-ethyl-N-(2,2,2-trifluoroethyl)-1-[[(2-trifluoromethyl)-4-pyridinyl]methyl]-1H-pyrazole-3-carboxamide] | 50 | 100 | 60 | 90 | 100 | 100 | 80 | 98 | 70 | 98 | 100 | 100 | 98 | 98 | 100 | 80 | – | – | – | – | Corn plant response rating (corn; Preemergence, 500 g ai/ha, 0 to 100 scale, 0 no effect, 100 complete control): 70; Barnyardgrass plant response rating (barnyardgrass; [8]): 50; Barnyardgrass plant response rating (barnyardgrass; [9]): 90; Foxtail, Giant plant response rating (foxtail, giant; [9]): 100; Morningglory plant response rating (morningglory [1]; [9]): 100; Pigweed plant response rating (pigweed [2]; [9]): 100; Plant response rating, Nutsedge, Yellow (nutsedge, yellow; 62 g ai/ha, 13 to 15 days): 85; Plant response rating, Pigweed (pigweed [3]; 62 g ai/ha, 13 to 15 days): 100; Pigweed plant response rating (pigweed [3]; [12]): 100; Plant response rating, Soybean (soybean; 62 g ai/ha, 13 to 15 days): 98; Soybean plant response rating (soybean; [12]): 98; Plant response rating, Velvetleaf (velvetleaf; 62 g ai/ha, 13 to 15 days): 100; Velvetleaf plant response rating (velvetleaf; [12]): 100
2 | CCCc1cc(C(=O)NCC)nn1Cc1ccnc(C(F)(F)F)c1 [Compound 95] | 70 | 100 | 50 | 100 | 90 | 100 | 75 | 90 | 50 | 85 | 100 | 100 | 98 | 80 | 100 | 50 | 90 | – | – | – | Corn plant response rating (corn; [13]): 90; Barnyardgrass plant response rating (barnyardgrass; [9]): 100; Foxtail, Giant plant response rating (foxtail, giant; [9]): 100; Morningglory plant response rating (morningglory [1]; [9]): 100; Pigweed plant response rating (pigweed [2]; [9]): 100; Plant response rating (scale of 0 to 100), Blackgrass (blackgrass): 100; Blackgrass plant response rating (blackgrass; [11]): 100; Plant response rating, Blackgrass (blackgrass; 62 g ai/ha, 13 to 15 days): 100; Blackgrass plant response rating (blackgrass; [12]): 100; Plant response rating (scale of 0 to 100), Morningglory (morningglory [4]): 100; Morningglory plant response rating (morningglory [4]; [11]): 100; Plant response rating, Morningglory (morningglory [4]; 62 g ai/ha, 13 to 15 days): 100; Morningglory plant response rating (morningglory [4]; [12]): 100; Plant response rating, Nutsedge, Yellow (nutsedge, yellow; 62 g ai/ha, 13 to 15 days): 80; Plant response rating, Pigweed (pigweed [3]; 62 g ai/ha, 13 to 15 days): 100; Pigweed plant response rating (pigweed [3]; [12]): 100; Plant response rating, Soybean (soybean; 62 g ai/ha, 13 to 15 days): 90; Soybean plant response rating (soybean; [12]): 95; Plant response rating, Velvetleaf (velvetleaf; 62 g ai/ha, 13 to 15 days): 100; Velvetleaf plant response rating (velvetleaf; [12]): 100
3 | CCONC(=O)c1cc(CC)n(Cc2cc(C(F)(F)F)no2)n1 [Compound 125] | – | – | – | 30 | – | 70 | 50 | 55 | 0 | 15 | 100 | 65 | 15 | 5 | 40 | 20 | 30 | 90 | 90 | 100 | Plant response rating (scale of 0 to 100), Blackgrass (blackgrass): 80; Blackgrass plant response rating (blackgrass; [11]): 0; Blackgrass plant response rating (blackgrass; [15]): 10; Blackgrass plant response rating (blackgrass; [12]): 60; Plant response rating (scale of 0 to 100), Morningglory (morningglory [4]): 95; Morningglory plant response rating (morningglory [4]; [11]): 45; Morningglory plant response rating (morningglory [4]; [15]): 50; Morningglory plant response rating (morningglory [4]; [12]): 75; Nutsedge, Yellow plant response rating (nutsedge, yellow; [15]): 5; Pigweed plant response rating (pigweed [3]; [15]): 75; Pigweed plant response rating (pigweed [3]; [12]): 90; Soybean plant response rating (soybean; [15]): 5; Soybean plant response rating (soybean; [12]): 10; Velvetleaf plant response rating (velvetleaf; [15]): 20; Velvetleaf plant response rating (velvetleaf; [12]): 30
4 | CCOc1cc(C(=O)NC2CC2)nn1Cc1ccnc(OC(F)F)c1 [Compound 133] | – | – | – | 100 | – | 100 | 90 | 85 | 20 | – | 100 | 100 | 95 | 50 | 100 | 35 | 90 | 100 | 100 | 100 | Plant response rating (scale of 0 to 100), Blackgrass (blackgrass): 95; Blackgrass plant response rating (blackgrass; [11]): 85; Blackgrass plant response rating (blackgrass; [15]): 90; Plant response rating, Blackgrass (blackgrass; 125 g ai/ha, 13 to 15 days): 90; Plant response rating (scale of 0 to 100), Morningglory (morningglory [4]): 100; Morningglory plant response rating (morningglory [4]; [11]): 75; Morningglory plant response rating (morningglory [4]; [15]): 100; Plant response rating, Morningglory (morningglory [4]; 125 g ai/ha, 13 to 15 days): 100; Nutsedge, Yellow plant response rating (nutsedge, yellow; [15]): 25; Plant response rating, Nutsedge, Yellow (nutsedge, yellow; 125 g ai/ha, 13 to 15 days): 70; Pigweed plant response rating (pigweed [3]; [15]): 75; Plant response rating, Pigweed (pigweed [3]; 125 g ai/ha, 13 to 15 days): 100; Soybean plant response rating (soybean; [15]): 40; Plant response rating, Soybean (soybean; 125 g ai/ha, 13 to 15 days): 85; Velvetleaf plant response rating (velvetleaf; [15]): 55; Plant response rating, Velvetleaf (velvetleaf; 125 g ai/ha, 13 to 15 days): 100
5 | CCCc1cc(C(=O)NCC(F)(F)F)nn1Cc1cc(C(F)(F)F)nn1C [Compound 138] | 80 | 90 | 10 | 100 | 80 | 100 | 90 | – | – | – | – | – | – | – | – | – | 100 | 100 | 100 | 100 | Corn plant response rating (corn; [13]): 90; Morningglory plant response rating (morningglory [1]; [14]): 100
6 | CCc1cc(C(=O)NCC(F)(F)F)nn1Cc1cc(OC(F)F)nn1C [Compound 206] | – | – | – | 0 | – | – | 0 | – | – | – | – | – | – | – | – | – | 0 | 60 | 80 | 100 | Pigweed plant response rating (pigweed [2]; [8]): 80
